Experiments:
colon cancer cells SW620 = assay: Colony formation assay, SW620; type: cell-based, human; conditions: anchorage-independent growth, colonies counted after 12 days
Method: (§1) The difference in sensitivity stems from the inability of neoplastic cells to adapt to decreases of metabolism.
(§2) Cell analysis: Viability and 4F2hc expression are determined by vital dye exclusion and flow cytometry. Oxygen consumption is measured with an XF24 Extracellular Flux Analyzer (Seahorse Bioscience); values are normalized to total protein. Confocal microscopy is performed on either a Zeiss LSM780 or a Nikon Eclipse Ti; vacuolation was monitored using a Nikon TE2000-S equipped with DIC filters. Anchorage-independent growth of SW620 cells is measured in DMEM-10 containing 0.35% agarose with a 0.5% agarose bottom layer. PBMNCs are obtained from the normal blood donor program run by the CTSA-supported Institute for Clinical and Translational Science at UCI under IRB protocols 2015-1883 (Edinger) and 2001-2058 (ICTS). […] Plates were incubated at 37° C. in a humidified atmosphere containing 5% CO2 and colonies were counted after 12 days.
(§3) Cell culture and reagents. […] Cell viability was measured by vital dye exclusion using either propidium iodide or DAPI at 1 μg/ml. Analysis of cell surface 4F2hc levels with PE-conjugated anti-CD98 was restricted to viable cells as determined by DAPI exclusion. Anchorage-independent growth of SW620 cells was measured in DMEM-10 containing 0.35% low melt agarose with a 0.5% agarose bottom layer. […]

[1] = system: normal human peripheral blood mononuclear cells (PBMC); assay: Colony formation assay, PBMC; type: cell-based
Method: as §1, §2, §3

bound NADH fraction = assay: NADH fluorescence lifetime imaging (FLIM); type: cell-based; conditions: mimicked amino acid and glucose starvation
From the text: Cells adapt to nutrient limitation by increasing oxidative phosphorylation. The relative rate of glycolysis and oxidative phosphorylation can be monitored by measuring the fluorescence lifetime of the reduced form of nicotinamide adenine dinucleotide (NADH). A higher ratio of protein-bound to free NADH (increased lifetime) correlates with increased oxidative phosphorylation in multiple cell types both in vitro and in vivo. Oligomycin and rotenone/antimycin A are molecules known in the field to induce glycolysis, whereas 2-deoxy-glucose (2DG) is an inhibitor of glycolysis and subsequently increases oxidative phosphorylation. Starvation of cells by removing access to glucose and amino acids is also known to increase oxidative phosphorylation. […]
NADH Fluorescence Lifetime Imaging Microscopy (FLIM). […] The excitation wavelength was 740 nm and a dichroic filter (690 nm) was used to separate the fluorescence signal from the laser light. […] The fluorescence was detected by a hybrid detector (HPM-100 Hamamatsu). […] The FLIM system was calibrated during each imaging session by measuring the fluorescence decay of fluorescein with a single exponential of 4.04 nsec. […] Data was processed by the SimFCS software developed at the Laboratory of Fluorescence Dynamics at UCI. […]

SMILES: CCCCCCCCc1ccc([C@H]2CCN[C@@H]2CO)cc1.Cl [Compound 5, (2S,3R)-2-(hydroxymethyl)-3-(4-octylphenyl)Pyrrolidinium chloride]
- sensitivity in colony formation assays (colon cancer cells SW620): highly sensitive
- sensitivity in colony formation assays [1]: resistant
- bound NADH fraction (bound NADH fraction): increasing

— patent US10995068B2, “Synthetic sphingolipid-like molecules, drugs, methods of their synthesis and methods of treatment” (The Regents of the University of California, priority 2015, dated 2021)
